We go through 15 compounds from PMC4094369 (Biochemical and biophysical research communications, 2013).

What is called IC50 is the concentration that inhibits the measured activity by half. The term Ki denotes a dissociation constant, usually derived from enzyme kinetics or from competition with a known ligand. Usually kinact stands for the maximal first-order rate at which the target is inactivated. Broadly, the kinact/KI is the second-order rate constant of inactivation.

“And” between values parts separate entries of the source, which are not always exact repeats. Equal entries are not always repeated. “Also recorded” adds a separate entry of the source. Structures can show the parent of a compound that is named as a salt. Where two headings read alike, the source gives them in different places. Some results are limits rather than exact numbers.

Data set [1] deals with T1, glutaminase (Homo sapiens, UniProt O94925).
T1 sequence (O94925 124-669 limits assumed): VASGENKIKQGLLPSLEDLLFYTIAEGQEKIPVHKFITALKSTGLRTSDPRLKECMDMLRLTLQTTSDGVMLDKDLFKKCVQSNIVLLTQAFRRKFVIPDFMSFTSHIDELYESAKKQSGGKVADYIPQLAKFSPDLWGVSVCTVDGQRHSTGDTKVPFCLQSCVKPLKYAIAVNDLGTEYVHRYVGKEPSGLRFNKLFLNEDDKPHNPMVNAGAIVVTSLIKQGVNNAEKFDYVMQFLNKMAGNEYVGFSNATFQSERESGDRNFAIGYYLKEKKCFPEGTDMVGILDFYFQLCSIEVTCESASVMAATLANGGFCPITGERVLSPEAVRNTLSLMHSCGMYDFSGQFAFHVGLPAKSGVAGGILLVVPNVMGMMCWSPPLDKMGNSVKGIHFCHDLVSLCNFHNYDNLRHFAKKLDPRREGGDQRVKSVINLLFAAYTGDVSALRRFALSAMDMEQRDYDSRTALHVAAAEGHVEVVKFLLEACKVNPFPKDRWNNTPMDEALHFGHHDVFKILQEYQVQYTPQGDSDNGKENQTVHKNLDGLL
Kind of data set: Glutaminase activity of analogs. The data set is classed as biochemical. The following applies: for retention of biological (glutaminase) activity: analogs of chelerythrine, in words.

For data set [2] the following is noted: in vivo; cited from earlier work.
Data set [3] has as its target T2, hKGAΔ1 (GLS1) (Homo sapiens, UniProt O94925).
T2 sequence (O94925 124-669 limits assumed): T1 sequence (O94925 124-669 limits assumed)
The data set can be described thus: Glutaminase activity, Amplex UltraRed fluorescent assay. The data set is classed as biochemical.

The target of data set [4] is T3, mouse c-type glutaminase (mGAC) (Mus musculus, UniProt D3Z7P3).
T3 sequence (D3Z7P3 55-603 isoform D3Z7P3-2 limits assumed): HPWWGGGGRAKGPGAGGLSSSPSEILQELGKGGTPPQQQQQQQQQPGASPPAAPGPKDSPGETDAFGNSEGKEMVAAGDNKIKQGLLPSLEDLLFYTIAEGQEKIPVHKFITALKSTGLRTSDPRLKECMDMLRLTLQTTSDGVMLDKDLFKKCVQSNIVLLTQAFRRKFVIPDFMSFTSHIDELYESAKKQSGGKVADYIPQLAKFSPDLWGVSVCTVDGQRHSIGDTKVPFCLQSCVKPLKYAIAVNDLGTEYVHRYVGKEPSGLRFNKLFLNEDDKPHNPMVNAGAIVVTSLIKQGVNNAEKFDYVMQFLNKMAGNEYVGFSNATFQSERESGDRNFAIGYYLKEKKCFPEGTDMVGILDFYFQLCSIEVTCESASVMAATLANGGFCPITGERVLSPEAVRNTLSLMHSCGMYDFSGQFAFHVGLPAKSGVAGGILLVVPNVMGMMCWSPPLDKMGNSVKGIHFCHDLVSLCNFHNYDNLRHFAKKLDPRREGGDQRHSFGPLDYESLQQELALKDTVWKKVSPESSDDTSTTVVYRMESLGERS
The data set is described as above. It is filed as biochemical.

Data set [5] deals with T4, mouse liver glutaminase (mLGA) (Mus musculus, UniProt Q571F8).
T4 sequence (Q571F8 15-602): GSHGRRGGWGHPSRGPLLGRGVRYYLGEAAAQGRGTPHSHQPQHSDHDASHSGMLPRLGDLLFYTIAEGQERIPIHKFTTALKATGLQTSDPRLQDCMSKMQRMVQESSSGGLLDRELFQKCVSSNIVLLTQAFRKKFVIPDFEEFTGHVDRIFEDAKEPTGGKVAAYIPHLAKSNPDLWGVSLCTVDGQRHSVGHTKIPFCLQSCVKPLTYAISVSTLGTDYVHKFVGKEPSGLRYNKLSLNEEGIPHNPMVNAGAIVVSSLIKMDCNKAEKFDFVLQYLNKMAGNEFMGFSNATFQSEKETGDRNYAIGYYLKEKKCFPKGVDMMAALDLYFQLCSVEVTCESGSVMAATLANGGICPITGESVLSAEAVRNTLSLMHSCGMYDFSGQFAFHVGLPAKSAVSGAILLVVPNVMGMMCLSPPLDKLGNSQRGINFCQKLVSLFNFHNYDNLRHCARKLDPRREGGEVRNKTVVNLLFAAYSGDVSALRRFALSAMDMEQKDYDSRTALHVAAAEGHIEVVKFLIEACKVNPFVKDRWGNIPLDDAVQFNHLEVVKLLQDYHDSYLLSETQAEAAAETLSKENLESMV
The data set is described as above. It is filed as biochemical. Conditions: for activity against GLS2 (mLGA) relative to GLS1 isoforms: fold less activity against GLS2 than GLS1 (hKGAΔ1, mGAC).

For data set [6], the target named is T5, glutaminase (hKGAΔ1) (Homo sapiens, UniProt O94925).
T5 sequence (O94925 124-669 limits assumed): T1 sequence (O94925 124-669 limits assumed)
The data set is classed as biochemical. The following applies: for Ki: Ki (competition studies), presence of glutamine; for Mode of inhibition: competition studies, average of 2–4 determinations.

Data set [7] concerns the target T5, glutaminase (hKGAΔ1). Kind of data set: Inactivation studies: time-dependent inhibition of glutaminase. Conditions: for time- and concentration-dependence of glutaminase inactivation: in words; for KI (inactivation): read-out: Ki (inactivation studies). The data set is classed as biochemical.
Data set [8] in a line: Solubility. The data set is classed as physicochemical. Conditions: in words, no data shown.
Where [9] appears, read: read-out: Avg. IC50, Table 6, analogs of apomorphine.

As for R(−)-Apocodeine hydrochloride, the “loss of activity relative to apomorphine” value in data set [1] (hydroxyl replaced with methoxy) amounted to 10 fold. The IC50 in data set [1] (setting [9]) is 4000 nM.
In the case of `O=C1c2ccccc2CN1c1ccccc1` [2-Phenyl isoindolin-1-one], the 50% inhibitory concentration (IC50) in data set [1] is > 100000 nM.
For the compound `O=C(Cc1ccccc1)Nc1nnc(CCSCCc2nnc(NC(=O)Cc3ccccc3)s2)s1` [BPTES, bis-2-(5-phenylacetimido-1,2,4-thiadiazol-2-yl)ethyl sulfide], in data set [2], the bioavailability entry is given as “low bioavailability”.
For the compound `O=c1c2ccccc2[se]n1-c1ccccc1` [Ebselen, 2-phenyl-1,2-benzisoselenazol-3[2H]-one], the IC50 in data set [3] is 8 nM. For the same compound, in data set [4], 20 nM corresponded to half-maximal inhibition (IC50). In data set [5], half-maximal inhibition (IC50) required 100 nM and the “activity against GLS2 (mLGA) relative to GLS1 isoforms” value was in the range of 5 to 10 fold. Besides, in data set [6], the inhibitory constant (Ki) is ~15 nM and 15 nM; the Mode of inhibition result is reported as “Mixed non-competitive”. Also, the “decrease in Vmax” value in data set [6] (as the concentration of inhibitor was increased) was found to be 6 fold. In data set [6] (listed as ebselen), the Mode of inhibition entry is “mixed non-competitive inhibition”. In data set [7], the inactivation rate constant (kinact) is 0.000367 s⁻¹; the second-order inactivation constant (kinact/KI) was found to be 25200 M⁻¹ s⁻¹; the “time- and concentration-dependence of glutaminase inactivation” value was “dependent on both concentration and time of incubation”; the KI (inactivation) is ~14 nM and 14 nM. For the same compound, in data set [7] (rate constant of inactivation), the kinact was 0.000364 s⁻¹. For the same compound, the “solubility relative to BPTES” value in data set [8] is “more soluble than BPTES”.
On to `COc1ccc2cc3[n+](cc2c1OC)CCc1cc2c(cc1-3)OCO2` [Berberine chloride, 5,6-dihydro-9,10-dimethoxy-benzo[g]-[1,3] benzodioxolo[5,6-a]quinolizinium], for which, in data set [1], the 50% inhibitory concentration (IC50) was > 100000 nM and the “retention of biological (glutaminase) activity” value (“retention of biological” for short) is on record as “did not maintain activity”.
In turn, `O=c1c2ccccc2sn1-c1ccccc1` [2-Phenylbenzo[d]isothiazol-3(2H)-one] had an IC50 in data set [1] of 20 nM.
Turning to `C[n+]1cc2c3c(ccc2c2ccc4cc5c(cc4c21)OCO5)OCO3` [Sanguinarine chloride, 13-methyl-[1,3]-benzodioxolo[5,6-c]-1,3-dioxolo[4,5-i]phenanthridinium], the 50% inhibitory concentration (IC50) in data set [1] was found to be 100 nM. For the same compound, the “retention of biological” value is reported as “retained” in data set [1] (listed as sanguinarine) and “retained biological activity” in data set [1] (listed as sanguinarine chloride).
As to `CN1CCc2cccc3c2C1Cc1ccc(O)c(O)c1-3` (stereo not shown) [Apomorphine hydrochloride, 5,6,6a,7-tetrahydro-6-methyl-4H-dibenzo[de,g] quinoline-10,11-diol], the figures for the IC50 in data set [4], in data set [5] and in data set [1] were 1000 nM, 300 nM and 600 nM, respectively. Further, the Ki in data set [6] came out at 2000 nM. Besides, the Mode of inhibition entry was “Competitive” in data set [6] and “competitive inhibition” in data set [6] (listed as apomorphine). For the same compound, the inactivation efficiency (kinact/KI) in data set [7] amounted to 13200 M⁻¹ s⁻¹. Further, the kinact in data set [7] (rate constant of inactivation) is 5.56e-05 s⁻¹. Further, the KI (inactivation) in data set [7] turned out to be 4 nM. Also, the “solubility relative to BPTES” value in data set [8] is “more soluble than BPTES”.
As for `[N-]=[N+]=CC(=O)CC[C@H](N)C(=O)O` [DON, 6-diazo-5-oxo-L-norleucine], the Mode of inhibition entry in data set [6] was “Time-dependent”. Also, in data set [7], the kinact/KI stood at 2.53 M⁻¹ s⁻¹; the “time- and concentration-dependence of glutaminase inactivation” value was “both concentration and time of incubation dependent; also recorded: time-dependent and irreversible”; the KI (inactivation) was 6000 nM. In addition, in data set [7] (rate constant of inactivation), the maximal inactivation rate constant (kinact) is 1.39e-05 s⁻¹.
As for R(−)-Propylnorapomorphine hydrochloride, the 50% inhibitory concentration (IC50) in data set [1] (setting [9]) came out at 900 nM.
Turning to `c1cc2c(cnc3c4cc5c(cc4ccc23)OCO5)c2c1OCO2` [Norsanguinarine chloride, [1,3]-benzodioxolo[5,6-c]-1,3-dioxolo[4,5-i]phenanthridine], in data set [1], the IC50 is > 100000 nM and the “retention of biological” value is listed as “biological activity was lost”.
Consider `O=c1c2ccccc2on1-c1ccccc1` [2-Phenylbenzo[d] isoxazol-3(2H)-one], for which half-maximal inhibition in data set [1] (IC50) was put at 20000 nM.
For the compound `CN1CCc2cccc3c2[C@@H]1Cc1ccc(O)c(O)c1-3` [S–Apomorphine hydrochloride], in data set [1] (setting [9]), the IC50 amounted to 400 nM.
As to `COc1ccc2c(c[n+](C)c3c4cc5c(cc4ccc23)OCO5)c1OC` [Chelerythrine chloride, 1,2-dimethoxy-N-methyl[1,3]benzodioxolo[5,6-c]phenanthridinium], the IC50 amounted to 30 nM in data set [3], 70 nM in data set [4], 300 nM in data set [5] and 30 nM in data set [1]. In addition, the “activity against GLS2 (mLGA) relative to GLS1 isoforms” value in data set [5] fell in the range of 5 to 10 fold. The Mode of inhibition result in data set [6] was “Competitive”; in data set [6] (listed as chelerythrine), “competitive inhibition”. For the same compound, the second-order inactivation constant (kinact/KI) in data set [7] was found to be 29200 M⁻¹ s⁻¹. The maximal inactivation rate constant (kinact) in data set [7] (rate constant of inactivation) was 0.000958 s⁻¹. Further, the KI (inactivation) in data set [7] was determined as 30 nM. The “solubility relative to BPTES” value in data set [8] is “more soluble than BPTES”.
Consider `COc1cc2c[n+](C)c3c4cc5c(cc4ccc3c2cc1OC)OCO5` [Nitidine chloride, 2,3-dimethoxy-N-methyl[1,3]benzodioxolo[5,6-c]phenanthridinium], for which the IC50 in data set [1] is 9000 nM. Further, the “retention of biological” value in data set [1] (listed as nitidine) is “retained”; in data set [1] (listed as nitidine chloride), “retained biological activity”.
